Columns and labels:
Assay in all cases: Bliss excess, mean over the matrix (fraction); higher = more synergy
[1] = system: SiHa (Cervical Carcinoma)
How it was run: (§1)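 Cell lines grown in DMEM/F12 or RPMI with 10% FBS were plated in 1536-well plates and held 24 hours at 37°C, 5% CO2 before 72 hours of exposure to two-drug dose matrices, with DMSO typically at 0.2%. CellTiter-Glo 2.0 luminescence gave viability, which was converted to inhibition. Vehicle wells were set to 0 and blank wells to 1. Combination Emax is the second-highest inhibition in the matrix, and Bliss excess is the observed combination effect minus the expected EA + EB − EA·EB, where EA and EB are the single-agent effects.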

[2] = system: KALS-1 (Glioblastoma)
How it was run: as §1

[3] = system: RCC-JW (Kidney Carcinoma)
How it was run: as §1

[4] = system: C-33-A (Cervical Carcinoma)
How it was run: as §1

[5] = system: PL4 (Pancreatic Carcinoma)
How it was run: as §1

[6] = system: MOLP-8 (Plasma Cell Myeloma)
How it was run: as §1

[7] = system: DBTRG-05MG (Glioblastoma)
How it was run: as §1

[8] = system: SAT (Head and Neck Carcinoma)
How it was run: as §1

[9] = system: LCLC-103H (Non-Small Cell Lung Carcinoma)
How it was run: as §1

[10] = system: NAMALWA (Burkitt's Lymphoma)
How it was run: as §1

[11] = system: SUP-M2 (T-Cell Non-Hodgkin's Lymphoma)
How it was run: as §1

[12] = system: SCC-4 (Oral Cavity Carcinoma)
How it was run: as §1

[13] = system: NCI-H1963 (Small Cell Lung Carcinoma)
How it was run: as §1

[14] = system: SKG-IIIa (Cervical Carcinoma)
How it was run: as §1

[15] = system: SNU-C2B (Colorectal Carcinoma)
How it was run: as §1

[16] = system: LS-1034 (Colorectal Carcinoma)
How it was run: as §1

[17] = system: ES6 (Ewing's Sarcoma)
How it was run: as §1

[18] = system: OAW-28 (Ovarian Carcinoma)
How it was run: as §1

[19] = system: SK-N-SH (Neuroblastoma)
How it was run: as §1

[20] = system: CPC-N (Small Cell Lung Carcinoma)
How it was run: as §1

Row | SMILES | Bliss excess [1] | Bliss excess [2] | Bliss excess [3] | Bliss excess [4] | Bliss excess [5] | Bliss excess [6] | Bliss excess [7] | Bliss excess [8] | Bliss excess [9] | Bliss excess [10] | Bliss excess [11] | Bliss excess [12] | Bliss excess [13] | Bliss excess [14] | Bliss excess [15] | Bliss excess [16] | Bliss excess [17] | Bliss excess [18] | Bliss excess [19] | Bliss excess [20]
1 | Cc1cc2ncnn2cc1Nc1ncc2c(n1)n(C1CCOCC1)c(=O)n2C [AZD7648] + C=CCn1c(=O)c2cnc(Nc3ccc(N4CCN(C)CC4)cc3)nc2n1-c1cccc(C(C)(C)O)n1 [AZD1775] (first compound max 10 µM, partner max 1 µM) | 0.0306 | -0.0051 | -0.0102 | 0.0409 | 0.0057 | 0.0123 | 0.0039 | -0.0065 | 0.002 | -0.0101 | 0.0377 | -0.0714 | 0.0345 | 0.0237 | -0.0404 | -0.0645 | -0.0031 | -0.0066 | -0.0069 | -0.0055
2 | CC(=O)c1c(C)c2cnc(Nc3ccc(N4CCNCC4)cn3)nc2n(C2CCCC2)c1=O [Palbociclib] + Cc1c2c(nn1C)CSCc1cc(n(C)n1)CSc1cc(c3ccccc3c1)OCCCc1c(C(=O)O)n(C)c3c-2c(Cl)ccc13 [AZD5991] (first compound max 10 µM, 7x7, partner max 1 µM) | -0.0561 | -0.0609 | -0.0306 | -0.0163 | -0.0458 | 0.0347 | -0.0561 | -0.0367 | -0.0151 | -0.0139 | -0.0132 | -0.0394 | -0.0047 | -0.0489 | -0.0477 | -0.064 | -0.0326 | 0.0058 | -0.0257 | 0.0035
3 | CC1(C)CCC(CN2CCN(c3ccc(C(=O)NS(=O)(=O)c4ccc(NCC5CCOCC5)c([N+](=O)[O-])c4)c(Oc4cnc5[nH]ccc5c4)c3)CC2)=C(c2ccc(Cl)cc2)C1 [Venetoclax] + Cn1cnc2c(F)c(Nc3ccc(Br)cc3Cl)c(C(=O)NOCCO)cc21 [Selumetinib] (first compound max 1 µM, 7x7, partner max 3 µM) | -0.0516 | -0.0415 | -0.0396 | -0.0033 | -0.0236 | -0.0737 | 0.0064 | 0.0334 | -0.0542 | 0.0019 | 0.0165 | -0.0931 | 0.0788 | -0.0275 | -0.0107 | -0.0644 | -0.0321 | 0.0047 | 0.083 | -0.0454
4 | CN(CCO)CC[C@H](CSc1ccccc1)Nc1ccc(S(=O)(=O)NC(=O)c2ccc(N3CCC([C@@H](O)c4ccccc4-c4ccc(Cl)cc4)CC3)cc2)cc1S(=O)(=O)C(F)(F)F [AZD4320] + C[C@@H](Nc1cc(F)cc(F)c1)c1cc(C(=O)N(C)C)cc2c(=O)cc(N3CCOCC3)oc12 [AZD8186] (first compound max 1 µM, 7x7, partner max 3 µM) | -0.0165 | 0.0385 | 0.0478 | -0.0542 | -0.0411 | 0.0576 | 0.02 | -0.0231 | -0.0139 | 0.0041 | 0.0539 | -0.0437 | 0.0841 | -0.0066 | 0.0342 | -0.0026 | 0.0029 | 0.0055 | -0.071 | 0.0273
5 | Cc1c2c(nn1C)CSCc1cc(n(C)n1)CSc1cc(c3ccccc3c1)OCCCc1c(C(=O)O)n(C)c3c-2c(Cl)ccc13 [AZD5991] + CC1(C)CCC(CN2CCN(c3ccc(C(=O)NS(=O)(=O)c4ccc(NCC5CCOCC5)c([N+](=O)[O-])c4)c(Oc4cnc5[nH]ccc5c4)c3)CC2)=C(c2ccc(Cl)cc2)C1 [Venetoclax] (first compound max 1 µM, 7x7, partner max 1 µM) | -0.129 | -0.0206 | -0.0335 | -0.006 | -0.0611 | 0.0174 | -0.0233 | 0.0101 | -0.0347 | -0.0172 | 0.0286 | -0.0365 | 0.119 | -0.0115 | -0.0289 | -0.0159 | -0.0065 | 0.13 | 0.151 | -0.017
6 | COc1cccc(OCCCN)c1-c1cc(Nc2cnc(C#N)cn2)n[nH]1 [Prexasertib] + CN(C)CCCOc1ccc(-c2ccc3ncc4c(c3c2)n(C2CCOCC2)c(=O)n4C)cn1 [AZD0156] (first compound max 1 µM, 7x7, partner max 1 µM) | 0.0003 | -0.0669 | 0.0281 | -0.0158 | -0.0387 | -0.0203 | -0.0209 | -0.0158 | -0.0391 | -0.0133 | 0.0163 | -0.0323 | -0.0253 | 0.0159 | -0.0133 | -0.0471 | 0.0091 | -0.0139 | -0.0496 | 0.0081
7 | CN(CCO)CC[C@H](CSc1ccccc1)Nc1ccc(S(=O)(=O)NC(=O)c2ccc(N3CCC([C@@H](O)c4ccccc4-c4ccc(Cl)cc4)CC3)cc2)cc1S(=O)(=O)C(F)(F)F [AZD4320] + C[C@@H]1COCCN1C2=NC(=NC(=C2)C3(CC3)[S@](=N)(=O)C)C4=C5C=CNC5=NC=C4 [AZD6738] (first compound max 1 µM, 7x7, partner max 10 µM) | -0.0492 | -0.0784 | -0.0862 | -0.0158 | -0.066 | 0.0086 | -0.0221 | – | -0.0362 | 0.0006 | -0.0128 | -0.0961 | 0.0129 | -0.0302 | -0.0292 | -0.037 | 0.015 | 0.0382 | -0.0586 | 0.0146
8 | CN(C)CCCOc1ccc(-c2ccc3ncc4c(c3c2)n(C2CCOCC2)c(=O)n4C)cn1 [AZD0156] + O=C(c1cc(Cc2n[nH]c(=O)c3ccccc23)ccc1F)N1CCN(C(=O)C2CC2)CC1 [Olaparib] (first compound max 3 µM, partner max 3 µM) | -0.0248 | -0.0235 | 0.0299 | 0.0868 | 0.018 | 0.0151 | -0.0207 | -0.0346 | 0.0713 | 0.117 | 0.202 | 0.0057 | – | -0.0324 | 0.0054 | 0.0657 | -0.005 | 0.0871 | -0.0043 | 0.0237
9 | C[C@@H](c1ccc2nccn2c1)n1nnc2ncc(-c3cnn(C)c3)nc21 [Savolitinib] + CN(CC[C@H](CSC1=CC=CC=C1)NC2=C(C=C(C=C2)S(=O)(=O)NC(=O)C3=CC=C(C=C3)N4CCC(CC4)[C@H](C5=CC=CC=C5C6=CC=C(C=C6)Cl)O)S(=O)(=O)C(F)(F)F)CCO [AZD4320] (first compound max 1 µM, 7x7, partner max 1 µM) | -0.0396 | – | – | – | -0.0801 | 0.0014 | -0.0262 | -0.0345 | – | – | -0.058 | – | 0.0022 | – | -0.101 | – | – | -0.006 | – | –
10 | C=CCn1c(=O)c2cnc(Nc3ccc(N4CCN(C)CC4)cc3)nc2n1-c1cccc(C(C)(C)O)n1 [AZD1775] + C1CN(CCC1(C(=O)N[C@@H](CCO)C2=CC=C(C=C2)Cl)N)C3=NC=NC4=C3C=CN4 [Capivasertib] (first compound max 3 µM, partner max 3 µM) | -0.0212 | -0.0806 | -0.0527 | -0.0323 | -0.0549 | 0.0286 | 0.005 | -0.0616 | -0.0462 | 0.0603 | 0.0518 | -0.0273 | – | -0.0139 | -0.0573 | -0.0125 | – | 0.0019 | -0.0626 | -0.0415
11 | CC(=O)c1c(C)c2cnc(Nc3ccc(N4CCNCC4)cn3)nc2n(C2CCCC2)c1=O [Palbociclib] + CN(CC[C@H](CSC1=CC=CC=C1)NC2=C(C=C(C=C2)S(=O)(=O)NC(=O)C3=CC=C(C=C3)N4CCC(CC4)[C@H](C5=CC=CC=C5C6=CC=C(C=C6)Cl)O)S(=O)(=O)C(F)(F)F)CCO [AZD4320] (first compound max 10 µM, 7x7, partner max 1 µM) | -0.044 | – | – | – | -0.0826 | 0.0145 | -0.119 | -0.0941 | – | – | 0.0414 | – | 0.0164 | – | -0.0867 | – | – | -0.004 | – | –
12 | COc1nnc2ccc(N3CCC(c4ccc(OCCN5CCN(C)C(=O)[C@H]5C)cc4)CC3)nn12 [AZD5153] + CN(CC[C@H](CSC1=CC=CC=C1)NC2=C(C=C(C=C2)S(=O)(=O)NC(=O)C3=CC=C(C=C3)N4CCC(CC4)[C@H](C5=CC=CC=C5C6=CC=C(C=C6)Cl)O)S(=O)(=O)C(F)(F)F)CCO [AZD4320] (first compound max 1 µM, 7x7, partner max 1 µM) | 0.0846 | – | – | – | 0.0732 | 0.0239 | -0.0517 | 0.0464 | – | – | -0.0028 | – | 0.0696 | – | 0.0215 | – | – | 0.0297 | – | –
13 | CCc1c2c(nc3ccc(O)cc13)-c1cc3c(c(=O)n1C2)COC(=O)[C@]3(O)CC [SN-38] + O=C(c1cc(Cc2n[nH]c(=O)c3ccccc23)ccc1F)N1CCN(C(=O)C2CC2)CC1 [Olaparib] (first compound max 0.3 µM, 7x7, partner max 10 µM) | 0.0271 | 0.069 | 0.112 | 0.0577 | 0.0386 | 0.0336 | 0.0015 | 0.0387 | 0.0352 | 0.0571 | 0.0641 | 0.0071 | 0.099 | 0.0602 | 0.0556 | 0.0494 | 0.13 | – | 0.0739 | 0.105
14 | Cc1c2c(nn1C)CSCc1cc(n(C)n1)CSc1cc(c3ccccc3c1)OCCCc1c(C(=O)O)n(C)c3c-2c(Cl)ccc13 [AZD5991] + C1CN(CCC1(C(=O)N[C@@H](CCO)C2=CC=C(C=C2)Cl)N)C3=NC=NC4=C3C=CN4 [Capivasertib] (first compound max 1 µM, 7x7, partner max 3 µM) | – | 0.0491 | 0.0131 | 0.0063 | 0.0199 | 0.0077 | -0.0215 | -0.0072 | -0.0025 | 0.0008 | -0.0079 | 0.0358 | 0.0377 | -0.0231 | -0.0161 | -0.0042 | -0.0055 | 0.045 | 0.011 | 0.0177

From the supplement of paper PMC11061612
